Reference: patent US4283418A, “Guanidinobenzoic acid derivatives and process for their preparation” (Ono Pharmaceutical Co., Ltd., priority 1979, dated 1981)

How the values were obtained:
trypsin = target: T1, trypsin (Bos taurus, UniProt P00760); assay: Inhibition of trypsin hydrolysis of p-tosylarginine methyl ester in vitro; type: biochemical; conditions: trypsin 0.5 μg, p-tosylarginine methyl ester 20 mM, Tris-HCl pH 8.5, 37° C., 30 minutes; read-out: 50% Inhibition Concentration Anti-trypsin
T1 sequence (P00760 24-246): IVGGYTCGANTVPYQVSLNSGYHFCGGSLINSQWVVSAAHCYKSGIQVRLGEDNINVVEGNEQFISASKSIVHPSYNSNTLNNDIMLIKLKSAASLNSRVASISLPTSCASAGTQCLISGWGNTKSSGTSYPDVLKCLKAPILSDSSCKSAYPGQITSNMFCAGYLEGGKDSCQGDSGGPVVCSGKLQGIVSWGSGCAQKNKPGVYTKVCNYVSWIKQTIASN
Description: (§1) The inhibitory activities of representative compounds of the general formula [I] against plasmin and trypsin in vitro were determined in a manner similar to the method described by M. Muramatsu et al J. Biochemistry, 58, 214 (1964) for trypsin and the method described by M. Muramatsu et al ibid, 57, 402 (1965) for plasmin. The procedures used are described more specifically below.
(1) Trypsin: 0.4 ml of trypsin (1.25 μg/ml), 0.5 ml of p-tosylarginine methyl ester (20 mM) in Tris-HCl buffer (pH 8.5) and 0.1 ml of a solution of each of the following compounds represented by the general formula [I] at various concentrations was reacted at a temperature of 37° C. for 30 minutes, and the concentration of each of the test compounds at which the activity of trypsin 0.5 μg to hydrolyze p-tosylarginine methyl ester was inhibited to an extent of 50% is shown in Table 1 below.

Solubility in water = type: physicochemical
plasmin = target: T2, plasmin (Homo sapiens, UniProt P00747); assay: Inhibition of plasmin in vitro (human euglobulin, streptokinase, fibrinogen); type: biochemical; conditions: borate saline buffer pH 7.4, 37° C., 30 minutes, read-out: 50% Inhibition Concentration Anti-Plasmin
T2 construct: from tissue
Description: as §1
(2) Plasmin: 0.1 ml of human euglobulin (10 fold dilution), 0.1 ml of streptokinase (2000 unit/ml), 0.4 ml of fibrinogen (4% solution), 0.3 ml of a 0.1 M borate saline buffer solution (pH 7.4) and 0.1 ml of a solution of each of the following compounds represented by the general formula [I] at various concentrations was allowed to react at a temperature of 37° C. for 30 minutes.

T2 sequence (P00747 97-580 limits assumed): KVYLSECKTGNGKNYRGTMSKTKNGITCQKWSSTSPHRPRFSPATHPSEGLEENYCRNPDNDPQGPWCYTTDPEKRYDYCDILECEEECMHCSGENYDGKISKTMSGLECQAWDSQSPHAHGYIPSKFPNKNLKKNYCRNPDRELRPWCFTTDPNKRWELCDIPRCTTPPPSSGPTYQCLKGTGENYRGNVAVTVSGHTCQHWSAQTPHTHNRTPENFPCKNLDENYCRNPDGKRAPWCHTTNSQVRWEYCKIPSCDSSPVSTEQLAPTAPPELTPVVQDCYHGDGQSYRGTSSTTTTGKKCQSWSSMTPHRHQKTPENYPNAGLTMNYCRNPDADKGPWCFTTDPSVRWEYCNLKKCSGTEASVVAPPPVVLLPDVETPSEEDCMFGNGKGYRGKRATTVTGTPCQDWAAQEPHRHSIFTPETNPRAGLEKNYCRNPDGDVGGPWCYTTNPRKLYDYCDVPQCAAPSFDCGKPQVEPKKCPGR
T2 sequence (P00747 581-810 limits assumed): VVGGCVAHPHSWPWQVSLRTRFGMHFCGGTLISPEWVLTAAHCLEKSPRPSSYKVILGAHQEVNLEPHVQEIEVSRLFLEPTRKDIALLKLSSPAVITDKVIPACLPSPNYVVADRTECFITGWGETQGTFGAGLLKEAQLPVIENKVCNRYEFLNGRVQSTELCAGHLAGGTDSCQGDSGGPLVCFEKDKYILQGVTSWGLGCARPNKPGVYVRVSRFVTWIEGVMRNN

Row | IC50 (trypsin) [nM] | solubility (Solubility in water) [mM] | IC50 (plasmin) [nM] | Compound
1 | 2.2 | > 20 | 4.8 | N=C(N)Nc1ccc(C(=O)Oc2ccc(S(N)(=O)=O)cc2)cc1 [Compound No. 3]
2 | 3 | > 20 | 3.1 | CNS(=O)(=O)c1ccc(OC(=O)c2ccc(NC(=N)N)cc2)cc1 [Compound No. 1]
3 | 3.4 | > 20 | 270 | CN(C)C(=O)Cc1ccc(OC(=O)c2ccc(NC(=N)N)cc2)cc1 [Compound No. 4]
4 | 2 | > 20 | 6.4 | CN(C)S(=O)(=O)c1ccc(OC(=O)c2ccc(NC(=N)N)cc2)cc1 [Compound No. 2]
5 | 9.1 | > 20 | 410 | CNC(=O)Cc1ccc(OC(=O)c2ccc(NC(=N)N)cc2)cc1 [Compound No. 5]
6 | 11 | > 20 | 95 | CN(C)C(=O)c1ccc(OC(=O)c2ccc(NC(=N)N)cc2)cc1 [Compound No. 6]
